The text below walks through data of US20210244028A1, “TREATMENT FOR REMOVING ECTOPARASITES FROM FISH” (priority 2018, published 2021).

This assay deals with Lepeophtheirus salmonis. The assay is described as follows: Immersion treatment of sea lice-challenged salmon in tanks, 1 or 6 weeks post challenge (Example 1). The format is in vivo. The text has this:
Eight flow-through treatment tanks each containing 15 fish were set up. The fish were Salmon (Salmo salar) having an average weight of approximately 270 g and of mixed sex. Egg strings removed from ovigerous female Lepeophtheirus salmonis were collected and cultured until infective copepodids were produced. Eight bottles containing approximately 330-350 copepodids were each randomly allocated to a treatment tank (to provide an average of 22 lice per fish).
In preparation for the challenge, water flows in the tanks were stopped and light levels reduced. The lice were then added to each tank and the tanks maintained in total darkness for 6 hours after which light levels were raised and the water flow resumed.
The fish were challenged with sea lice for either one week or for six weeks.
One week after the sea lice challenge, fish in three of the tanks were treated with either 10 ppm w/v, 30 ppm w/v or 50 ppm w/v imidacloprid. One of the tanks was treated with 0.03% DMSO and another tank sham treated with sea water as controls.
For each treatment tank, the appropriate amount of imidacloprid (see Table 1) was dissolved in 100 ml of DMSO and mixed with approximately 900 ml of sea water from the experimental tank to obtain a treatment solution. The water flow on the experimental tanks was disabled and the treatment solution was then added.
Fish were exposed for 60 minutes in static water with full aeration and observed during the exposure period. At the end of the exposure period the water was rapidly drained to approximately ⅓ volume, before the flows were resumed in the tanks.
Six weeks after the fish were challenged with sea lice, the fish in the three remaining treatment tanks were treated with either 10 ppm w/v, 30 ppm w/v or 50 ppm w/v imidacloprid. The treatment was carried out in the same way as for the treatment tanks one week post challenge (see 1.2.1).
Eight weeks after the fish were challenged with sea lice, the study was terminated. Fish were over anaesthetised in MS222 (tricaine methanesulfonate) and pithed using an Iki Jime tool.
The length and weight of each fish and external symptoms were recorded. All lice were removed from each fish and note made of sex and stage of development. The lice were stored in ethanol and sex and stage confirmed using stereo microscope.
The data is expressed as prevalence and abundance. Prevalence is defined as the number of hosts infected with one of more individuals of a parasite species divided by the number of hosts examined (including infected and uninfected hosts) and expressed as a percentage.

In the case of `O=[N+]([O-])NC1=NCCN1Cc1ccc(Cl)nc1` [imidacloprid], the “Overall lice abundances compared with the DMSO control” value (10, 30 or 50 ppm w/v, treated one week post challenge) was “No significant differences”. Further, the “Time after addition at which no fish were visibly infected with lice” value (30 ppm w/v, treated 6 weeks post challenge) came to 59 min. Moreover, the “Lesions associated with feeding and attachment of lice” value by setting is: (30 ppm w/v, two days post-treatment) “almost completely resolved”; (50 ppm w/v, two days post treatment) “almost completely resolved”. Besides, the “Time after addition at which no lice were visible on the fish” value (50 ppm w/v, treated 6 weeks post challenge) came out at 81 min.
